Data as given in patent US20030203969A1, “Pharmaceutically active aromatic guanylhydrazones” (priority 2000, published 2003).

Tested on: Vero cells
Assay: Cytotoxicity in uninfected Vero cells (HSV-1 experiments, MTS)
Type: cell-based, African green monkey
Details: inhibits cell growth by 50%, read-out: TC50 (the source's name)
From the text: A virus-induced cytopathic effects (CPE)-inhibition assay procedure using Promega's Cell Titer Aqueous One Solution (MTS, metabolic dye) is employed to evaluate compounds for antiviral activity against herpes simplex virus type 1 (strain HF) in Vero cells (African green monkey cells, ATCC Cat. No. CCL-81). Vero cells are pregrown in 96-well tissue culture plates using Dulbecco's Modified Eagle's Medium (DMEM) supplemented with 10% heat-inactivated fetal bovine serum (FBS), L-glutamine, penicillin, and streptomycin. To each of the replicate cell cultures is added 50 μl of the test drug solution and 50 μl of virus suspension. Cell controls containing medium alone, virus-infected controls containing medium and virus, drug cytotoxicity controls containing medium and each drug concentration, reagent controls containing culture medium only (no cells), and drug calorimetric controls containing drug and medium (no cells) are run simultaneously with the test samples. The plates are incubated at 37° C. in a humidified atmosphere containing 5% CO2 until maximum CPE is observed in the untreated virus control cultures (Day 5). CPE inhibition is determined by a dye (MTS) uptake procedure. […] The purple color of the MTS formazan is then measured spectrophotometrically at 490/650 nm. […]

`CC(=NNC(=N)N)c1cc(NC(=O)CCCCCCCCC(=O)Nc2cc(C(C)=NNC(=N)N)cc(C(C)=NNC(=N)N)c2)cc(C(C)=NNC(=N)N)c1` [Compound 4, N,N′-bis (3,5-diacetylphenyl) decane diamide tetrakis (amidinohydrazone)] showed a CC50 of 20.6 µM.
